# Source: publication PMC3961306, “Comparison of the Cancer Gene Targeting and Biochemical Selectivities of All Targeted Kinase Inhibitors Approved for Clinical Use” (PLoS ONE, 2014)
# Tests used:
# Test in all cases: Kinase profiling in a biochemical assay panel (mobility shift assays and ELISA), %-inhibition at 1 μM; selectivity entropy
# [1] = biological target: T1, panel of more than 300 wild-type and mutant kinases (313 kinase panel) (Homo sapiens, UniProt P29323); conditions: kinase EPHB2; compound at 1 μM
# T1 sequence (P29323 19-1055): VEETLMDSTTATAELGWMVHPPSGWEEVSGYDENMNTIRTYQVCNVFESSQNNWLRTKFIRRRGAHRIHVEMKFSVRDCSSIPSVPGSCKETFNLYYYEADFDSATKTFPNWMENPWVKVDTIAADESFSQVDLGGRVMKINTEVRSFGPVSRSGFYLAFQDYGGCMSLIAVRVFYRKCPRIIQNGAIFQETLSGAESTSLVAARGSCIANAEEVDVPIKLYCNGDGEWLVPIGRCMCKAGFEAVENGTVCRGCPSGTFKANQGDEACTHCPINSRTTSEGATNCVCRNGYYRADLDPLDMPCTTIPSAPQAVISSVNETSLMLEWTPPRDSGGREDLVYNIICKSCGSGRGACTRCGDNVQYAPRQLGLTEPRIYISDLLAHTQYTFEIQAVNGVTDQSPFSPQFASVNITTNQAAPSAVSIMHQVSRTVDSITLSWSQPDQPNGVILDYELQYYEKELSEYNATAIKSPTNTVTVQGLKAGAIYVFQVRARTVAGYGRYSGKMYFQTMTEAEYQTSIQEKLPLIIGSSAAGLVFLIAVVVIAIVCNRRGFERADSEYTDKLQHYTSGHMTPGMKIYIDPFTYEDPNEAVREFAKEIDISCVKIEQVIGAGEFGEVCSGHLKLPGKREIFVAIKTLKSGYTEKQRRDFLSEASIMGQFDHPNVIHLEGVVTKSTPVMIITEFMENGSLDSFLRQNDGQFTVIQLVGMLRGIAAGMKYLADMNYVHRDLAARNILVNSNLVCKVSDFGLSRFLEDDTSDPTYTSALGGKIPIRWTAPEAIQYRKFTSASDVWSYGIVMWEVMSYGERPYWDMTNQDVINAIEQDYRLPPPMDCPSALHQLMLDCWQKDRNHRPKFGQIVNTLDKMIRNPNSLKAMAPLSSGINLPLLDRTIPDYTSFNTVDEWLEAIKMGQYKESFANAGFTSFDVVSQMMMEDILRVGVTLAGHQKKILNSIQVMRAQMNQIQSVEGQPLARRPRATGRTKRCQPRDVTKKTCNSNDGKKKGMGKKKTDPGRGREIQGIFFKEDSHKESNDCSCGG
# [2] = biological target: T2, panel of more than 300 wild-type and mutant kinases (313 kinase panel) (Homo sapiens, UniProt O14965); conditions: 1 μM compound
# T2 sequence (O14965 1-403): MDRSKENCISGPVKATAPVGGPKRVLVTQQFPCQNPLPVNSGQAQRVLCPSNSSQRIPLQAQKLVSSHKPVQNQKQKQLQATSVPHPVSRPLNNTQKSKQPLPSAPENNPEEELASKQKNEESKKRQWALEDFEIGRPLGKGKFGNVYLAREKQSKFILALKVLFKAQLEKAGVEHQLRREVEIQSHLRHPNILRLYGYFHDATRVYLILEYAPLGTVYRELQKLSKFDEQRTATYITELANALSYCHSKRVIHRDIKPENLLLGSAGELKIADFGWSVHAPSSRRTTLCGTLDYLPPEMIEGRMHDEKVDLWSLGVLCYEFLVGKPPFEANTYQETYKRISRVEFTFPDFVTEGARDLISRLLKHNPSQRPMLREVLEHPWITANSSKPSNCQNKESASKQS
# [3] = biological target: panel of more than 300 wild-type and mutant kinases (313 kinase panel) (Homo sapiens, UniProt Q07912); conditions: kinase ACK; 1 μM compound
# Sequence of panel of more than 300 wild-type and mutant kinases (313 kinase panel) (Homo sapiens, UniProt Q07912) (Q07912 whole entry, change not shown): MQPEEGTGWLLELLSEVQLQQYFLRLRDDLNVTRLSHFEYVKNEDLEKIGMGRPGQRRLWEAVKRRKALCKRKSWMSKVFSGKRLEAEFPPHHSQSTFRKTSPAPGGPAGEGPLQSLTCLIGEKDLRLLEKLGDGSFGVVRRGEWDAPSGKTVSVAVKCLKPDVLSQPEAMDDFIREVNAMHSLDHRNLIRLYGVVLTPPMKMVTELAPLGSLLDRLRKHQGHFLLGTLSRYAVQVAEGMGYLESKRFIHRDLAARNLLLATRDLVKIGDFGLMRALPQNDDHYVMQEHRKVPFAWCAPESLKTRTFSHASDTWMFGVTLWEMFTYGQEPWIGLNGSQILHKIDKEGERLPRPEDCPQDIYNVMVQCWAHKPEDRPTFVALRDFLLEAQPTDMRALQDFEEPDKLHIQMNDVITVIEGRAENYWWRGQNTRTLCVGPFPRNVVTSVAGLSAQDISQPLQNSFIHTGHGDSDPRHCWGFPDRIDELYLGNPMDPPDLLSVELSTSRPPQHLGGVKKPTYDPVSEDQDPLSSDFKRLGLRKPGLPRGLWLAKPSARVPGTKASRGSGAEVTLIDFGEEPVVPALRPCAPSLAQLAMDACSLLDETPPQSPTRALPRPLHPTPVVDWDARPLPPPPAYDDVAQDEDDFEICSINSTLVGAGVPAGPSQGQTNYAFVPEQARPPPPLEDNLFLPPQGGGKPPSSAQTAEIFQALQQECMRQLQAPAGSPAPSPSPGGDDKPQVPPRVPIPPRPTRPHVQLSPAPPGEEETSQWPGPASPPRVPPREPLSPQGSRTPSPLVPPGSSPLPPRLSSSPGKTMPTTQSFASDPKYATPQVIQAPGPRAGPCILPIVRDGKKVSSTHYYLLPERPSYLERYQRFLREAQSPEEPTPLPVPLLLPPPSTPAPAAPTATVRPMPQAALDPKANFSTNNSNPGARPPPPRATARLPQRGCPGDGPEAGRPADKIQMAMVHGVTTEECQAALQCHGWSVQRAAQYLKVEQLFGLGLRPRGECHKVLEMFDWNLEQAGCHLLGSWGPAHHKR
# [4] = biological target: T3, panel of more than 300 wild-type and mutant kinases (313 kinase panel) (Homo sapiens, UniProt Q9NZJ5); conditions: kinase PEK; 1 μM
# T3 sequence (Q9NZJ5 30-1116): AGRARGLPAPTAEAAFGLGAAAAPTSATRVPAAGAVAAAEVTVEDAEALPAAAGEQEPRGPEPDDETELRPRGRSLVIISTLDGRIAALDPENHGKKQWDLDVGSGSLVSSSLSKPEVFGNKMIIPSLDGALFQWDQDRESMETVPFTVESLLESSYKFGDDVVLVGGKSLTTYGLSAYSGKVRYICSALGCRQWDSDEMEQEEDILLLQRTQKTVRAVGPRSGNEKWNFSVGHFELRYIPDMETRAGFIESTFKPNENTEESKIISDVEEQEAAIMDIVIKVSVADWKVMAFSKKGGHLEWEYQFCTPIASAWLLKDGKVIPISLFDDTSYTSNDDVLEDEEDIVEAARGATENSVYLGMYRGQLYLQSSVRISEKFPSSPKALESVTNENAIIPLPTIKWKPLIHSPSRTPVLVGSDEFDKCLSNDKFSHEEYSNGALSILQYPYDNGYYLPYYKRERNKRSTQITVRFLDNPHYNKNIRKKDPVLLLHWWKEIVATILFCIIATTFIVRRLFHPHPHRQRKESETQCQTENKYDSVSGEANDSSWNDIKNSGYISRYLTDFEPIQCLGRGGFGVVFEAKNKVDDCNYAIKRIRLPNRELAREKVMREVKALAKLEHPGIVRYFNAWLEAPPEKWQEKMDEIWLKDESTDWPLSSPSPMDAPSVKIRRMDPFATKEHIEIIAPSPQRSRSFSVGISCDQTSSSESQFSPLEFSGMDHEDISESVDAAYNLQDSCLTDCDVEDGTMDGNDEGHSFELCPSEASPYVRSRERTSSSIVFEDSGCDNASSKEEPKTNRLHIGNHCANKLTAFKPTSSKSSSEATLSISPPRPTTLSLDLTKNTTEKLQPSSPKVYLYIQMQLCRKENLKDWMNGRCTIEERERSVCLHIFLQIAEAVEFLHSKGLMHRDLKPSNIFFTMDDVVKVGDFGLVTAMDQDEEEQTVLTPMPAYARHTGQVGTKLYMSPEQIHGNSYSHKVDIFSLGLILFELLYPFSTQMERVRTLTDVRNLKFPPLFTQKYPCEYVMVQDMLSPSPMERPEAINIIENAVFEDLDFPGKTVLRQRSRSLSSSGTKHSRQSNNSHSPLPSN
# [5] = biological target: panel of more than 300 wild-type and mutant kinases (313 kinase panel) (Homo sapiens, UniProt Q9HC98); conditions: kinase NEK6; 1 μM
structure (smiles),measurement,setting,value
Cc1ccc(C(=O)Nc2ccc(CN3CCN(C)CC3)c(C(F)(F)F)c2)cc1C#Cc1cnc2cccnn12 [ponatinib],%-inhibition of EPHB2,[1],102%
same,"%-inhibition, AurA/TPX2",[2]; kinase AurA/TPX2,-3.42%
same,"%-inhibition, AurA",[2]; kinase AurA,9%
same,"%-inhibition, ACK",[3],99%
same,%-inhibition of PEK,[4],65%
same,%-inhibition of NEK6,[5],-10%
